Results from patent publication US20230255953A1, “USE OF ROLUPERIDONE IN PREVENTING RELAPSE IN SCHIZOPHRENIA PATIENTS” (Minerva Neurosciences, Inc., priority 2022, published 2023).

Test system: patients with negative symptoms of schizophrenia
Assay: Study #2 (MIN-101C07) Phase 3: PANSS-derived scores (NSFS, total, subscales, Marder factors)
Type: in vivo, human
Parameters: key to Change from Baseline LS Mean: NSFS (ITT) / Change from Baseline LS Mean: NSFS (mITT): NSFS total ranges 7 to 49; higher = more severe
Conditions: for Change from Baseline LS Mean: Marder's Anxiety/Depression Factor Score / Change from Baseline LS Mean: Marder's Disorganized Thought Factor Score / Change from Baseline LS Mean: Marder's Positive Symptoms Factor Score / Change from Baseline LS Mean: Marder's Uncontrolled Hostility/Excitement Factor Score / Change from Baseline LS Mean: NSFS (ITT) / Change from Baseline LS Mean: NSFS Emotional Experience Score / Change from Baseline LS Mean: NSFS Emotional Expression Score / Change from Baseline LS Mean: PANSS General Psychopathology Subscale / Change from Baseline LS Mean: PANSS Negative Symptoms Subscale / Change from Baseline LS Mean: PANSS Positive Symptoms Subscale / Change from Baseline LS Mean: PANSS Total Score / Effect Size (Cohen's d) vs Placebo: Marder's Anxiety/Depression Factor Score / Effect Size (Cohen's d) vs Placebo: Marder's Disorganized Thought Factor Score / Effect Size (Cohen's d) vs Placebo: Marder's Positive Symptoms Factor Score / Effect Size (Cohen's d) vs Placebo: Marder's Uncontrolled Hostility/Excitement Factor Score / Effect Size (Cohen's d) vs Placebo: NSFS (ITT) / Effect Size (Cohen's d) vs Placebo: NSFS Emotional Experience Score / Effect Size (Cohen's d) vs Placebo: NSFS Emotional Expression Score / Effect Size (Cohen's d) vs Placebo: PANSS General Psychopathology Subscale / Effect Size (Cohen's d) vs Placebo: PANSS Negative Symptoms Subscale / Effect Size (Cohen's d) vs Placebo: PANSS Positive Symptoms Subscale / Effect Size (Cohen's d) vs Placebo: PANSS Total Score / Effect size, change from Baseline in NSFS to Week 12: ITT; for Effect size, change from Baseline in NSFS to Week 12: 64 mg
Excerpt: “PANSS”, as used herein, refers to the positive and negative syndrome scale, which is used by physicians and clinicians to measure the severity of the symptoms in a schizophrenia patient. The scale is divided into three parts, a positive scale, which provides a “PANSS positive subscore”, a negative scale, which provides a “PANSS negative subscore”, and general psychopathology scale. The sum of these three parts provides a PANSS total score, which ranges from 30 to 210 (where higher scores indicate more severe symptoms). (Kay, S. R., et al. “The positive and negative syndrome scale (PANSS) for schizophrenia,” Schizophr Bulletin, 13(2), 261-276 (1987)).
As used herein, PANSS Marder's negative symptoms factor score (“NSFS”), refers to selection of seven of the PANSS items used by physicians and clinicians to measure the severity of the negative symptoms in a schizophrenia patient. (See Tables 5A and 5B.) The NSFS total score ranges from 7 to 49. (Marder, S. R. et al. “The effects of risperidone on the five dimensions of schizophrenia derived by factor analysis: combined results of the North American trials,” J Clin Psychiatry. 1997; 58:538-46.)
The PANSS was designed to be used in patients with schizophrenia to measure the overall severity of schizophrenic symptoms. The scale has been validated in different cultures and languages and is reliable and acceptable to regulatory health authorities as a primary scale to determine efficacy of intervention in schizophrenia. The name refers to the 2 types of symptoms in schizophrenia, as defined by the American Psychiatric Association: positive symptoms, which refer to an excess or distortion of normal functions (e.g., hallucinations and delusions), and negative symptoms, which represent a diminution or loss of normal functions.
The patient is rated from 1 to 7 on 30 different symptoms based on the interview as well as reports of family members or primary care hospital workers. The original PANSS included 3 groups of symptoms and subscale scores Positive, Negative, and General Psychopathology. Since the inception of PANSS, investigators have proposed additional grouping (structures) of PANSS such as the Marder structure (Marder, S. R. et al. “Issues and perspectives in designing clinical trials for negative symptoms in schizophrenia: consensus statements,” Schizophrenia Bulletin Open. 2020; 1(1). doi:10.1093/schizbullopen/sgz001) and the White structure (White, L. et al. “Empirical assessment of the factorial structure of clinical symptoms in schizophrenia”. Psychopathology. 1997; 30263-274).
The PANSS was assessed at the time points described in Table 4.
The PANSS-derived endpoints used in these studies and the integrated analyses are described in Table 5A and a summary of the individual PANSS items used by physicians and clinicians to measure the severity of the symptoms in a schizophrenia patient is provided in Table 5B. The scale is divided into three parts, a positive scale, which provides a “PANSS positive subscore”, a negative scale, which provides a “PANSS negative subscore”, and general psychopathology scale. The sum of these three parts provides a PANSS total score, which ranges from 30 to 210 (where higher scores indicate more severe symptoms). (See Kay, S. R., et al. “The positive and negative syndrome scale (PANSS) for schizophrenia,” Schizophr Bulletin, 13(2), 261-276 (1987) and Gopal, S., et al. “Improvement of Negative Symptoms in Schizophrenia with Paliperidone Palmitate 1-Month and 3-Month Long-Acting Injectables: Results from a Phase 3 Non-Inferiority Study” Neuropsychiatric Disease and Treatment, 681-690, DOI: 10.2147/NDT.5226296, both of which are incorporated by reference.)
Study #2 (also referred to as “MIN101C07”) was a Phase 3, randomized, DB, placebo-controlled, parallel-group 12-week study to evaluate the efficacy and safety of Roluperidone in patients ≥18 years to ≤55 years with negative symptoms of schizophrenia, followed by a 40-week OL extension. […]

1H-Isoindol-1-one,2-[ [1-[2-(4-fluorophenyl)-2-oxoethyl]-4-piperidinyl]methyl]-2,3-dihydro-, hydrochloride, hydrate (1:1:2) [Roluperidone]
Effect Size (Cohen's w) vs Placebo: 20% reduction in NSFS responders (32 mg QD, Week 12 DB): 0.05 | Effect Size (Cohen's w) vs Placebo: 30% reduction in NSFS responders (32 mg QD, Week 12 DB): 0.04 | Number of Patients with 20% reduction in NSFS at Week 12 (32 mg QD, Week 12 DB): 32/116 | Number of Patients with 30% reduction in NSFS at Week 12 (32 mg QD, Week 12 DB): 14/116 | Patients with 20% reduction in NSFS at Week 12 (%) (32 mg QD, Week 12 DB): (28%) | Patients with 30% reduction in NSFS at Week 12 (%) (32 mg QD, Week 12 DB): (12%) | Change from Baseline LS Mean: Marder's Anxiety/Depression Factor Score (32 mg QD, Week 12 DB): −0.6 | Change from Baseline LS Mean: Marder's Disorganized Thought Factor Score (32 mg QD, Week 12 DB): −1.6 | Change from Baseline LS Mean: Marder's Positive Symptoms Factor Score (32 mg QD, Week 12 DB): −1.3 | Change from Baseline LS Mean: Marder's Uncontrolled Hostility/Excitement Factor Score (32 mg QD, Week 12 DB): 0.3 | Change from Baseline LS Mean: NSFS (ITT) (32 mg QD, Week 12 DB): −4.0 | Change from Baseline LS Mean: NSFS Emotional Experience Score (32 mg QD, Week 12 DB): −1.5 | Change from Baseline LS Mean: NSFS Emotional Expression Score (32 mg QD, Week 12 DB): −2.6 | Change from Baseline LS Mean: PANSS General Psychopathology Subscale (32 mg QD, Week 12 DB): −2.8 | Change from Baseline LS Mean: PANSS Negative Symptoms Subscale (32 mg QD, Week 12 DB): −4.2 | Change from Baseline LS Mean: PANSS Positive Symptoms Subscale (32 mg QD, Week 12 DB): −0.3 | Change from Baseline LS Mean: PANSS Total Score (32 mg QD, Week 12 DB): −7.1 | Effect Size (Cohen's d) vs Placebo: Marder's Anxiety/Depression Factor Score (32 mg QD, Week 12 DB): 0.05 | Effect Size (Cohen's d) vs Placebo: Marder's Disorganized Thought Factor Score (32 mg QD, Week 12 DB): 0.15 | Effect Size (Cohen's d) vs Placebo: Marder's Positive Symptoms Factor Score (32 mg QD, Week 12 DB): 0.14 | Effect Size (Cohen's d) vs Placebo: Marder's Uncontrolled Hostility/Excitement Factor Score (32 mg QD, Week 12 DB): −0.05 | Effect Size (Cohen's d) vs Placebo: NSFS (ITT) (32 mg QD, Week 12 DB): 0.13 | Effect Size (Cohen's d) vs Placebo: NSFS Emotional Experience Score (32 mg QD, Week 12 DB): 0.11 | Effect Size (Cohen's d) vs Placebo: NSFS Emotional Expression Score (32 mg QD, Week 12 DB): 0.17 | Effect Size (Cohen's d) vs Placebo: PANSS General Psychopathology Subscale (32 mg QD, Week 12 DB): 0.22 | Effect Size (Cohen's d) vs Placebo: PANSS Negative Symptoms Subscale (32 mg QD, Week 12 DB): 0.10 | Effect Size (Cohen's d) vs Placebo: PANSS Positive Symptoms Subscale (32 mg QD, Week 12 DB): 0.04 | Effect Size (Cohen's d) vs Placebo: PANSS Total Score (32 mg QD, Week 12 DB): 0.17 | Change from Baseline LS Mean: NSFS (mITT) (32 mg QD, Week 12 DB): −4.0 | Effect Size (Cohen's d) vs Placebo: NSFS (mITT) (32 mg QD, Week 12 DB): 0.13 | Effect Size (Cohen's w) vs Placebo: 20% reduction in NSFS responders (64 mg QD, Week 12 DB): 0.17 | Effect Size (Cohen's w) vs Placebo: 30% reduction in NSFS responders (64 mg QD, Week 12 DB): 0.09 | Number of Patients with 20% reduction in NSFS at Week 12 (64 mg QD, Week 12 DB): 48/122 | Number of Patients with 30% reduction in NSFS at Week 12 (64 mg QD, Week 12 DB): 24/122 | Change from Baseline LS Mean: Marder's Anxiety/Depression Factor Score (64 mg QD, Week 12 DB): −0.7 | Change from Baseline LS Mean: Marder's Disorganized Thought Factor Score (64 mg QD, Week 12 DB): −1.4 | Change from Baseline LS Mean: Marder's Positive Symptoms Factor Score (64 mg QD, Week 12 DB): −1.6 | Change from Baseline LS Mean: Marder's Uncontrolled Hostility/Excitement Factor Score (64 mg QD, Week 12 DB): 0.5 | Change from Baseline LS Mean: NSFS (ITT) (64 mg QD, Week 12 DB): −4.3 | Change from Baseline LS Mean: NSFS Emotional Experience Score (64 mg QD, Week 12 DB): −1.8 | Change from Baseline LS Mean: NSFS Emotional Expression Score (64 mg QD, Week 12 DB): −2.6 | Change from Baseline LS Mean: PANSS General Psychopathology Subscale (64 mg QD, Week 12 DB): −2.3 | Change from Baseline LS Mean: PANSS Negative Symptoms Subscale (64 mg QD, Week 12 DB): −4.7 | Change from Baseline LS Mean: PANSS Positive Symptoms Subscale (64 mg QD, Week 12 DB): −0.4 | Change from Baseline LS Mean: PANSS Total Score (64 mg QD, Week 12 DB): −7.4 | Effect Size (Cohen's d) vs Placebo: Marder's Anxiety/Depression Factor Score (64 mg QD, Week 12 DB): 0.09 | Effect Size (Cohen's d) vs Placebo: Marder's Disorganized Thought Factor Score (64 mg QD, Week 12 DB): 0.07 | Effect Size (Cohen's d) vs Placebo: Marder's Positive Symptoms Factor Score (64 mg QD, Week 12 DB): 0.24 | Effect Size (Cohen's d) vs Placebo: Marder's Uncontrolled Hostility/Excitement Factor Score (64 mg QD, Week 12 DB): −0.15 | Effect Size (Cohen's d) vs Placebo: NSFS (ITT) (64 mg QD, Week 12 DB): 0.21 | Effect Size (Cohen's d) vs Placebo: NSFS Emotional Experience Score (64 mg QD, Week 12 DB): 0.28 | Effect Size (Cohen's d) vs Placebo: NSFS Emotional Expression Score (64 mg QD, Week 12 DB): 0.17 | Effect Size (Cohen's d) vs Placebo: PANSS General Psychopathology Subscale (64 mg QD, Week 12 DB): 0.12 | Effect Size (Cohen's d) vs Placebo: PANSS Negative Symptoms Subscale (64 mg QD, Week 12 DB): 0.23 | Effect Size (Cohen's d) vs Placebo: PANSS Positive Symptoms Subscale (64 mg QD, Week 12 DB): 0.07 | Effect Size (Cohen's d) vs Placebo: PANSS Total Score (64 mg QD, Week 12 DB): 0.20 | Change from Baseline LS Mean: NSFS (mITT) (64 mg QD, Week 12 DB): −4.5 | Effect Size (Cohen's d) vs Placebo: NSFS (mITT) (64 mg QD, Week 12 DB): 0.26 | Effect size, change from Baseline in NSFS to Week 12 (US sites subgroup): 0.32 | Effect size, change from Baseline in NSFS to Week 12 (non-US sites subgroup): 0.20 | NSFS score, course in OL period (all treatment groups, OL period to Week 52): continued to improve
